{"source": "patent US6455593B1", "about": "“Method of dynamic retardation of cell cycle kinetics to potentiate cell damage” (priority 1995, dated 2002)", "key": {"[1]": {"settings": "continuous infusion, minimal toxicity; cited from earlier work"}, "[2]": {"tested_on": "human promonocytic lymphoma cells (U937)", "assay": "Microculture indicator system (MIS), MTT growth inhibition assay with bivariate serial dilutions", "format": "cell-based", "settings": "for inhibition at 0.01 µg/mL / inhibition at 0.02 µg/mL / inhibition at 0.03 µg/mL / inhibition at 0.06 µg/mL / inhibition at 0.5 µg/mL / inhibition at 1 µg/mL / inhibition at 2 µg/mL / inhibition at 4 µg/mL: Homo sapiens", "method": "Microcultures of human promonocytic lymphoma cells (U937) (“the U937 cells”) originally obtained from the American Type Culture Collection (CRL 1593) and later grown by Dr. K. Zoon at the FDA in Bethesda, Md. were set up in a multiwell plate with serial two-fold dilutions of dThd in tissue culture growth medium (RPMI 1640 plus 10% Nurserum and antibiotics). The volume of medium per well was 100 μl and the cell number per well was about 1×10^5. The plate was incubated at 37° C. for 24 hr.\nA dye, 3-[4,5-dimethylthiazol-2-yl]-2,5-diphenyl-tetrazolium bromide (MTT), was used as a chromogenic indicator of the metabolically active cell mass. Viable cells metabolize the dye and accumulate a reduced formazan product (blue color) which is solubilized for colorimetry. Mossman T, J. Immunol. Methods 5:55-63 (1983); Li L and Lau B H S, In Vitro Cell Dev. Biol. 29A:531-536 (1993). The MTT assay has been established as useful for measuring either growth inhibition or population killing. Plowman, supra. The MTT method is ideal for cells tested in suspension growth, and can also be used for some cells growing in monolayers. […] Alley, supra; Hofs, supra; Wilson J K et al., Br. J. Cancer 62:189-94 (1990); Plowman, supra.\nThirty μl of 0.5% MTT in phosphate buffered saline was added to each microculture well at the appropriate time. After incubation at 37° C. for 3 hr, 120 μl of an aqueous solution of 10 % SDS with 0.01 N HCl was added to release and dissolve formazan product. This was accomplished by overnight incubation of the plate at 37° C. After careful mixing of the microwell contents by placing the plates on an orbital shaker for 5 minutes the absorbencies were quantitated by spectrophotometry at 570 nm with a Ceres UV 900 HDI microwell plate reader (from Biotek Instruments Inc, Winooski, Vt. 05404-0998). Absorbance data was normalized to a blank well containing all reagents without cells and was collected semi-automatically.\nFlat-bottom 96-well plates of tissue culture quality (Corning or Costar) were set up with two-fold serial dilutions of each agent to be tested, e.g., the RA and TCI, using a multichannel pipettor with adjustable volume, e.g., Costar or Rainin, to perform serial mixing. This set-up is diagrammed in FIG. 12. […] In each plate, a total of 59 wells then contained bivariate agent combinations, the bivariate serial dilutions.\nAgents were serially diluted by serial mixing in two separate plates or series of wells, and then were combined prior to addition of a fixed volume and density of the U937 cells in a suspension calculated to deliver about 1×10^5 cells per well.\nCells were added after serial dilutions of the dThd had been dispensed. Cells were dispensed at about 10×10^4 cells per microwell to provide optimal sensitivity of detection of cell damage in subsequent calorimetric assays. […] The final volume of medium was 100 μl/well. The plates were further incubated at 37° C. for a total duration of 18-24 h. The dye MTT was used as a chromogenic indicator of the residual and metabolically active cell mass. (Described in Example 1).\nIn this MTT assay, normalized absorbance data was collected semi-automatically from each microculture well with a Ceres UV 900 HD1 plate reader, from Biotek Instruments Inc., Winooski, V T 05404-0998, stored in an EIA file under the Ceres 900 program, transferred in comma delimited format to a floppy diskette, and imported into a spread sheet program (Borland Quattro Pro) for data manipulations."}}, "note": "Read-outs that look alike come from different tables or passages of the source.", "data": [{"compound": "C[C@@]1(CO)[C@H](O)CC[C@@]2(C)[C@H]1CC[C@H]1C[C@@H]3C[C@@]12CC[C@]3(O)CO", "note": "[Aph, aphidicolin]", "values": [{"measurement": "Peak plasma levels", "setting": "[1]", "value": 3, "unit": "µg/mL"}, {"measurement": "inhibition at 0.01 µg/mL", "setting": "[2]; U-937, 4 h, U937, Aph 0.01 ug/ml 4 H, K252a 0, read-out: MTT % inhibition, Aph only", "value": 5, "unit": "%"}, {"measurement": "inhibition at 0.02 µg/mL", "setting": "[2]; U-937, 4 h, U937, Aph 0.02 ug/ml 4 H, K252a 0, read-out: MTT % inhibition, Aph only", "value": 0, "unit": "%"}, {"measurement": "inhibition at 0.03 µg/mL", "setting": "[2]; U-937, 4 h, U937, Aph 0.03 ug/ml 4 H, K252a 0, read-out: MTT % inhibition, Aph only", "value": 1, "unit": "%"}, {"measurement": "inhibition at 0.06 µg/mL", "setting": "[2]; U-937, 4 h, U937, Aph 0.06 ug/ml 4 H, K252a 0, read-out: MTT % inhibition, Aph only", "value": 14, "unit": "%"}, {"measurement": "inhibition at 0.5 µg/mL", "setting": "[2]; U-937, 4 h, U937, Aph 0.50 ug/ml 4 H, K252a 0, read-out: MTT % inhibition, Aph only", "value": 9, "unit": "%"}, {"measurement": "inhibition at 1 µg/mL", "setting": "[2]; U-937, 4 h, U937, Aph 1.00 ug/ml 4 H, K252a 0, read-out: MTT % inhibition, Aph only", "value": 14, "unit": "%"}, {"measurement": "inhibition at 2 µg/mL", "setting": "[2]; U-937, 4 h, U937, Aph 2.00 ug/ml 4 H, K252a 0, read-out: MTT % inhibition, Aph only", "value": 24, "unit": "%"}, {"measurement": "inhibition at 4 µg/mL", "setting": "[2]; U-937, 4 h, U937, Aph 4.00 ug/ml 4 H, K252a 0, read-out: MTT % inhibition, Aph only", "value": 38, "unit": "%"}, {"measurement": "inhibition at 0.01 µg/mL", "setting": "[2]; U-937, U937, total 18 H, STSP 14 H, Aph 4 H, Aph 0.01 ug/ml, STSP nM by row: r7 100, r8 50, r9 25, r10 12.5, r11 6.25, r12 3.13, r13-r14 0, read-out: Growth inhibition (MTT)", "value": 1, "unit": "%"}, {"measurement": "inhibition at 0.02 µg/mL", "setting": "[2]; U-937, U937, total 18 H, STSP 14 H, Aph 4 H, Aph 0.02 ug/ml, STSP nM by row: r7 100, r8 50, r9 25, r10 12.5, r11 6.25, r12 3.13, r13-r14 0, read-out: Growth inhibition (MTT)", "value": 7, "unit": "%"}, {"measurement": "inhibition at 0.03 µg/mL", "setting": "[2]; U-937, U937, total 18 H, STSP 14 H, Aph 4 H, Aph 0.03 ug/ml, STSP nM by row: r7 100, r8 50, r9 25, r10 12.5, r11 6.25, r12 3.13, r13-r14 0, read-out: Growth inhibition (MTT)", "value": 6, "unit": "%"}, {"measurement": "inhibition at 0.06 µg/mL", "setting": "[2]; U-937, U937, total 18 H, STSP 14 H, Aph 4 H, Aph 0.06 ug/ml, STSP nM by row: r7 100, r8 50, r9 25, r10 12.5, r11 6.25, r12 3.13, r13-r14 0, read-out: Growth inhibition (MTT)", "value": 9, "unit": "%"}, {"measurement": "inhibition at 0.5 µg/mL", "setting": "[2]; U-937, U937, total 18 H, STSP 14 H, Aph 4 H, Aph 0.50 ug/ml, STSP nM by row: r7 100, r8 50, r9 25, r10 12.5, r11 6.25, r12 3.13, r13-r14 0, read-out: Growth inhibition (MTT)", "value": 21, "unit": "%"}, {"measurement": "inhibition at 1 µg/mL", "setting": "[2]; U-937, U937, total 18 H, STSP 14 H, Aph 4 H, Aph 1.00 ug/ml, STSP nM by row: r7 100, r8 50, r9 25, r10 12.5, r11 6.25, r12 3.13, r13-r14 0, read-out: Growth inhibition (MTT)", "value": 22, "unit": "%"}, {"measurement": "inhibition at 2 µg/mL", "setting": "[2]; U-937, U937, total 18 H, STSP 14 H, Aph 4 H, Aph 2.00 ug/ml, STSP nM by row: r7 100, r8 50, r9 25, r10 12.5, r11 6.25, r12 3.13, r13-r14 0, read-out: Growth inhibition (MTT)", "value": 31, "unit": "%"}, {"measurement": "inhibition at 4 µg/mL", "setting": "[2]; U-937, U937, total 18 H, STSP 14 H, Aph 4 H, Aph 4.00 ug/ml, STSP nM by row: r7 100, r8 50, r9 25, r10 12.5, r11 6.25, r12 3.13, r13-r14 0, read-out: Growth inhibition (MTT)", "value": 30, "unit": "%"}, {"measurement": "Potentiation of DNA damage by STSP as RA", "setting": "[2]; U937, concentrations less than IC40, STSP as the TCI", "value": "proved successful in potentiating DNA damage by STSP"}, {"measurement": "combined results ratio, Aph only (baseline line)", "setting": "[2]; U937, Aph alone, every Aph concentration 4.00-0.01 ug/ml", "value": 1.0}, {"measurement": "Combined results ratio", "setting": "[2]; U937, total 18 H, STSP 14 H, Aph 4 H, Aph 0.01 ug/ml, STSP nM by row: r7 100, r8 50, r9 25, r10 12.5, r11 6.25, r12 3.13, r13-r14 0", "value": 1.0}, {"measurement": "Combined results ratio", "setting": "[2]; U937, total 18 H, STSP 14 H, Aph 4 H, Aph 0.02 ug/ml, STSP nM by row: r7 100, r8 50, r9 25, r10 12.5, r11 6.25, r12 3.13, r13-r14 0", "value": 1.0}, {"measurement": "Combined results ratio", "setting": "[2]; U937, total 18 H, STSP 14 H, Aph 4 H, Aph 0.03 ug/ml, STSP nM by row: r7 100, r8 50, r9 25, r10 12.5, r11 6.25, r12 3.13, r13-r14 0", "value": 1.0}, {"measurement": "Combined results ratio", "setting": "[2]; U937, total 18 H, STSP 14 H, Aph 4 H, Aph 0.06 ug/ml, STSP nM by row: r7 100, r8 50, r9 25, r10 12.5, r11 6.25, r12 3.13, r13-r14 0", "value": 1.0}, {"measurement": "Combined results ratio", "setting": "[2]; U937, total 18 H, STSP 14 H, Aph 4 H, Aph 0.50 ug/ml, STSP nM by row: r7 100, r8 50, r9 25, r10 12.5, r11 6.25, r12 3.13, r13-r14 0", "value": 1.0}, {"measurement": "Combined results ratio", "setting": "[2]; U937, total 18 H, STSP 14 H, Aph 4 H, Aph 1.00 ug/ml, STSP nM by row: r7 100, r8 50, r9 25, r10 12.5, r11 6.25, r12 3.13, r13-r14 0", "value": 1.0}, {"measurement": "Combined results ratio", "setting": "[2]; U937, total 18 H, STSP 14 H, Aph 4 H, Aph 2.00 ug/ml, STSP nM by row: r7 100, r8 50, r9 25, r10 12.5, r11 6.25, r12 3.13, r13-r14 0", "value": 1.0}, {"measurement": "Combined results ratio", "setting": "[2]; U937, total 18 H, STSP 14 H, Aph 4 H, Aph 4.00 ug/ml, STSP nM by row: r7 100, r8 50, r9 25, r10 12.5, r11 6.25, r12 3.13, r13-r14 0", "value": 1.0}]}]}
